Test results reported in article PMC9608620, “Synthesis and Identification of New N,N-Disubstituted Thiourea, and Thiazolidinone Scaffolds Based on Quinolone Moiety as Urease Inhibitor” (Molecules, 2022).
Converted amounts (≈) assume the structure as drawn. Read-outs that look alike come from different tables or passages of the source.

Legend:
[1] = target: T1, urease (Jack bean urease) (Canavalia ensiformis, UniProt P07374); assay: biochemical; type: biochemical
Description: In vitro screening and inhibitory studies on urease (Jack bean urease) were determined using the colored Berthelot phenols method, which measures the liberation of ammonia from the reaction. Briefly, the assay mixture containing 1 unit of the enzyme was added to 650 µL of buffer solution (50 mmol phosphate buffer Ph 6.7, 400 mmol sodium salicylate, 10 mmol sodium nitroprusside, and 2 mmol EDTA/L) and mixed with 10 µL of different concentration 0.1–100 Mm of the tested compounds in DMF as a solvent. […] After 15 min incubation at room temperature, 10 µL of 50 mg/L urea solution was added. The mixture was incubated for 0.5 h in a water bath at 37 °C to allow the hydrolysis process.
After complete urea hydrolysis and ammonia liberation, the reaction was stopped by adding 200 µL of the hypochlorite reagent (150 mmol/L sodium hydroxide, 140 mm/L sodium hypochlorite). The liberated ammonia was allowed to complex with the hypochlorite and salicylate for 25 min at 30 °C. The absorbance was measured at 578 nm using a UV/VIS Spectrophotometer (Optizen POP, 5U4608, Daejeon, Korea), and experiments were performed in triplicate in a final volume of 1 mL. […] The percentage inhibition was calculated as the difference of absorbance values with and without the test compounds. The concentration that provokes an inhibition halfway between the minimum and maximum response of each compound (relative IC50) was determined by monitoring the inhibition effect of various concentrations of compounds in the assay.

[2] = system: Proteus mirabilis (P. mirabilis) strain; assay: Antibacterial screening, cup-plate diffusion method; type: cell-based; details: urease-positive clinical isolate from urine, number in brackets, read-out: MIC P. mirabilis (given in brackets)
Description: The Proteus mirabilis (P. mirabilis) strain was isolated from the urine of patients suffering from urinary tract infections. […] The test was performed using the cup-plate diffusion method

[3] = target: T1, urease (Jack bean urease); details: read-out: IC50 (µM) Urease; lead compound of the design rationale; cited from earlier work
[4] = Jack bean urease, triplicate, relative IC50, read-out: IC50 (µM) Urease

T1 sequence (P07374 whole entry, looked up): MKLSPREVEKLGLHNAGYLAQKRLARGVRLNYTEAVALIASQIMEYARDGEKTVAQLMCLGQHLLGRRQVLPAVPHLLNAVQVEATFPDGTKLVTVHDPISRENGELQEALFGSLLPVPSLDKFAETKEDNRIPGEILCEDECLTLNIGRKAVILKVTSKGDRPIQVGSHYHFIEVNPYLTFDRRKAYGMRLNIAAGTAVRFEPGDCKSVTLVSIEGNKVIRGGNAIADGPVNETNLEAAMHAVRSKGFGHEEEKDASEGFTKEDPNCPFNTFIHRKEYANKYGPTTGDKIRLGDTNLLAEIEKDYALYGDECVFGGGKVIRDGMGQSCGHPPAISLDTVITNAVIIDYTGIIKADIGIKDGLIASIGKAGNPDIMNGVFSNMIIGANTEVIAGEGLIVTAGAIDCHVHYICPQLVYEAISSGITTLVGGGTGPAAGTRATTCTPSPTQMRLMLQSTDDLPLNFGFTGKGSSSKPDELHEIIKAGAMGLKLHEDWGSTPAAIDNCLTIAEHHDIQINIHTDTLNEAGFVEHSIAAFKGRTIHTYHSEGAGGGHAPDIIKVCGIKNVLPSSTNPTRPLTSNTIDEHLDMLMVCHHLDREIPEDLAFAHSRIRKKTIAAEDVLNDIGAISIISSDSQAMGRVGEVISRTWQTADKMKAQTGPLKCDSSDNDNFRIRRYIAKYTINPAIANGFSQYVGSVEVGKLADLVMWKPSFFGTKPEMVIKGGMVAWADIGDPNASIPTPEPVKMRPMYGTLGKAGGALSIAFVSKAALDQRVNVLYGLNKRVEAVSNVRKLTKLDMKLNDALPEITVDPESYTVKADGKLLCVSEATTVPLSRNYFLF

| SMILES | melting point [°C] | IC50 [1] [µM] | MIC [2] [µg/mL] | IC50 [1, 4] [µM] | IC50 [3] [µM] | fold more potent than thiourea and acetohydroxamic acid (urease inhibition) ([1]; relative to the reference inhibitors) |
| --- | --- | --- | --- | --- | --- | --- |
| COC(=O)/C=C1/SC(=NNC(=O)COc2cc(=O)n(C)c3ccccc23)N(c2ccccc2)C1=O [Compound 7c, (2E)-Methyl 2-(2-(2-(2-((1-methyl-2-oxo-1,2-dihydroquinolin-4-yl)oxy)acetyl)-hydrazono)-4-oxo-3-phenylthiazolidin-5-ylidene)acetate] | 229 to 231 | 18.8 ± 1.72 | 200 (≈ 406 µM) | – | – | – |
| O=C(COc1cc(=O)[nH]c2ccccc12)NNC(=S)NCc1ccccc1 [Compound 5g, N-Benzyl-2-(2-((2-oxo-1,2-dihydroquinolin-4-yl)oxy)acetyl)hydrazinecarbothioamide] | 199 to 201 | 11.2 ± 0.27 | 100 (≈ 261 µM) | – | – | – |
| CCOC(=O)/C=C1/SC(=NNC(=O)COc2cc(=O)n(C)c3ccccc23)N(c2ccccc2)C1=O [Compound 7d, (2E)-Ethyl 2-(2-(2-(2-((1-methyl-2-oxo-1,2-dihydroquinolin-4-yl)oxy)acetyl)-hydrazono)-4-oxo-3-phenylthiazolidin-5-ylidene)acetate] | 223 to 225 | 26.8 ± 1.11 | 200 (≈ 395 µM) | – | – | – |
| CCOC(=O)/C=C1/S/C(=N\NC(=O)COc2cc(=O)[nH]c3ccc(C)cc23)N(Cc2ccccc2)C1=O [Compound 7h, (E)-Ethyl 2-((Z)-3-benzyl-2-(2-(2-((6-methyl-2-oxo-1,2-dihydroquinolin-4-yl)oxy)acetyl)-hydrazono)-4-oxothiazolidin-5-ylidene)acetate] | 233 to 235 | 31.3 ± 0.36 | 200 (≈ 384 µM) | – | – | – |
| CC(=O)NO [Acetohydroxamic acid, reference compound] | – | – | – | 21 ± 0.94 | – | – |
| COC(=O)/C=C1/SC(=NNC(=O)COc2cc(=O)[nH]c3ccccc23)N(Cc2ccccc2)C1=O [Compound 7k, (2E)-Methyl 2-(3-benzyl-4-oxo-2-(2-(2-((2-oxo-1,2-dihydroquinolin-4-yl)oxy)acetyl)-hydrazono)thiazolidin-5-ylidene)acetate] | 251 to 253 | 49.45 ± 0.09 | 200 (≈ 406 µM) | – | – | – |
| C=CCN1C(=O)/C(=C\C(=O)OC)SC1=NNC(=O)COc1cc(=O)n(C)c2ccccc12 [Compound 7a, (2E)-Methyl 2-(3-allyl-2-(2-(2-((1-methyl-2-oxo-1,2-dihydroquinolin-4-yl)oxy)acetyl)-hydrazono)-4-oxothiazolidin-5-ylidene)acetate] | 233 to 235 | 36.28 ± 0.1 | 200 (≈ 438 µM) | – | – | – |
| CCNC(=S)NNC(=O)Cn1c(Cc2ccc(F)cc2)nc2ccccc2c1=O [lead I, N-ethyl-2-(2-(2-(4-fluorobenzyl)-4-oxoquinazolin-3(4H)-yl)acetyl)hydrazinecarbothioamide] | – | – | – | – | 6.02 ± 0.27 | – |
| C=CCNC(=S)NNC(=O)COc1cc(=O)[nH]c2ccccc12 [Compound 5f, N-Allyl-2-(2-((2-oxo-1,2-dihydroquinolin-4-yl)oxy)acetyl)hydrazinecarbothioamide] | 169 to 171 | 9.45 ± 0.08 | 100 (≈ 301 µM) | – | – | – |
| C=CCN1C(=O)/C(=C\C(=O)OC)S/C1=N\NC(=O)COc1cc(=O)[nH]c2ccc(C)cc12 [Compound 7f, (E)-Methyl 2-((Z)-3-allyl-2-(2-(2-((6-methyl-2-oxo-1,2-dihydroquinolin-4-yl)oxy)-acetyl)hydrazono)-4-oxothiazolidin-5-ylidene)acetate] | 232 to 233 | 31.58 ± 0.15 | 200 (≈ 438 µM) | – | – | – |
| Cc1ccc2[nH]c(=O)cc(OCC(=O)NNC(=S)NCc3ccccc3)c2c1 [Compound 5e, N-Benzyl-2-(2-((6-methyl-2-oxo-1,2-dihydroquinolin-4-yl)oxy)acetyl)hydrazinecarbothioamide] | 183 to 185 | 5.6 ± 0.84 | 100 (≈ 252 µM) | – | – | – |
| Cn1c(=O)cc(OCC(=O)NNC(=S)Nc2ccccc2)c2ccccc21 [Compound 5c, 2-(2-((1-Methyl-2-oxo-1,2-dihydroquinolin-4-yl)oxy)acetyl)-N-phenylhydrazinecarbothioamide] | 161 to 163 | 1.83 ± 0.79 | 100 (≈ 261 µM) | – | – | approximately 12 fold |
| NC(N)=S [Thiourea] | – | – | – | 22.8 ± 1.31 | – | – |
| Cn1c(=O)cc(OCC(=O)NNC(=S)NCc2ccccc2)c2ccccc21 [Compound 5b, N-Benzyl-2-(2-((1-methyl-2-oxo-1,2-dihydroquinolin-4-yl)oxy)acetyl)hydrazinecarbothioamide] | 190 to 192 | 2.58 ± 0.1 | 100 (≈ 252 µM) | – | – | – |
| C=CCNC(=S)NNC(=O)COc1cc(=O)[nH]c2ccc(C)cc12 [Compound 5d, N-Allyl-2-(2-((6-methyl-2-oxo-1,2-dihydroquinolin-4-yl)oxy)acetyl)hydrazine-1-carbothioamide] | 174 to 176 | 5.29 ± 0.36 | 100 (≈ 289 µM) | – | – | – |
| C=CCNC(=S)NNC(=O)COc1cc(=O)n(C)c2ccccc12 [Compound 5a, N-Allyl-2-(2-((1-methyl-2-oxo-1,2-dihydroquinolin-4-yl)oxy)acetyl)hydrazinecarbo-thioamide] | 177 to 179 | 2.48 ± 0.18 | 100 (≈ 289 µM) | – | – | – |
| C=CCN1C(=O)/C(=C\C(=O)OC)SC1=NNC(=O)COc1cc(=O)[nH]c2ccccc12 [Compound 7j, (2E)-Methyl 2-(3-allyl-4-oxo-2-(2-(2-((2-oxo-1,2-dihydroquinolin-4-yl)oxy)acetyl)-hydrazono)thiazolidin-5-ylidene)acetate] | 244 to 246 | 51.4 ± 0.91 | 200 (≈ 452 µM) | – | – | – |
| CCOC(=O)/C=C1/S/C(=N\NC(=O)COc2cc(=O)[nH]c3ccccc23)N(Cc2ccccc2)C1=O [Compound 7l, (E)-Ethyl 2-((Z)-3-benzyl-4-oxo-2-(2-(2-((2-oxo-1,2-dihydroquinolin-4-yl)oxy)acetyl)-hydrazono)thiazolidin-5-ylidene)acetate] | 249 to 251 | 37.21 ± 0.28 | 200 (≈ 395 µM) | – | – | – |
| CCOC(=O)/C=C1/S/C(=N\NC(=O)COc2cc(=O)n(C)c3ccccc23)N(Cc2ccccc2)C1=O [Compound 7b] | 243 to 245 | 24 ± 0.88 | 200 (≈ 384 µM) | – | – | – |
| COC(=O)/C=C1/SC(=NNC(=O)COc2cc(=O)[nH]c3ccc(C)cc23)N(Cc2ccccc2)C1=O [Compound 7g, (2E)-Methyl 2-(3-benzyl-2-(2-(2-((6-methyl-2-oxo-1,2-dihydroquinolin-4-yl)oxy)acetyl)-hydrazono)-4-oxothiazolidin-5-ylidene)acetate] | 241 to 243 | 45.43 ± 0.19 | 200 (≈ 395 µM) | – | – | – |
| C=CCN1C(=O)/C(=C\C(=O)OCC)S/C1=N\NC(=O)COc1cc(=O)[nH]c2ccccc12 [Compound 7i, (2E)-Ethyl 2-(3-allyl-4-oxo-2-(2-(2-((2-oxo-1,2-dihydroquinolin-4-yl)oxy)acetyl)hydra-zono)thiazolidin-5-ylidene)acetate] | – | 42.8 ± 1.51 | 200 (≈ 438 µM) | – | – | – |
| C=CCN1C(=O)/C(=C\C(=O)OCC)S/C1=N\NC(=O)COc1cc(=O)[nH]c2ccc(C)cc12 [Compound 7e, (E)-Ethyl 2-((Z)-3-allyl-2-(2-(2-((6-methyl-2-oxo-1,2-dihydroquinolin-4-yl)oxy)acetyl)-hydrazono)-4-oxothiazolidin-5-ylidene)acetate] | 239 to 241 | 29.8 ± 1.31 | 200 (≈ 425 µM) | – | – | – |
